# Experimental data: patent US5658913A, “Chemopreventive compounds and a preparation method and use thereof” (Kim; Nak Doo, priority 1993, dated 1997)
# Legend:
# Format in all cases: in vivo, Sprague-Dawley rat
# [1] = test system: microsomal epoxide hydrolase (mEH); assay: Western blot analysis for microsomal epoxide hydrolase (Experimental Example 3(1)); conditions: 200 mg/kg i.p. for 1, 2 or 3 days; FIG. 6
# Method: The hepatic microsomes were separated and subjected to SDS-polyacrylamide gel electrophoresis by following the same procedure as in the above Experimental Example 1(1). Thereafter, western blot analysis for microsomal epoxide hydrolase(mEH) was carried out as follows:
# Streptavidine-horseradish peroxidase and 4-chloro-1-naphtol were added to the reaction mixture to develop a color.
# [2] = test system: N-nitrosodimethylamine demethylase; assay: N-Nitrosodimethylamine demethylase activity of hepatic microsomes (Experimental Example 1(2-3)); conditions: 200 mg/kg, 1 to 3 days, time-dependent
# Method: (§1) Six groups of Sprague-Dawley rat weighing 190±30 g were administered with pyrazine(Groups 1 to 3) or the compound prepared in Example 1-1(Groups 4 to 6) in a dose of 200 mg/kg for 1, 2 or 3 days. After the hepatic microsomes were separated by following the same procedure as in the above (1), activity of p-nitrophenol hydrolase was measured according to the method of Koop(Dennis R. Koop, Hydroxylation p-nitrophenol by rabbit ethanol inducible cytochrome P-450 isozyme 3a, Molecular Pharmacol. 29, 399-404(1986)).
# The same procedure as in the above (2-1) was carried out to measure the activity of N-nitrosodimethyl demethylase. The activity of N-nitrosodimethyl demethylase was measured according to the method of Kaul and Novak(Kaul, L. L. and Novak, R. F., Induction of rabbit hepatic microsomal cytochrome P-450 by imidazole; enhanced metabolic activity and altered substrate specificity, Arch. Biochem. Biophys., 235, 470-481(1984)).
# Thus, 10 mM N-Nitrosodimethylamine and 0.6 ml of 0.1M potassium phosphate buffer(pH 7.4) were added to 1 mg of microsomes, and 1 mM NADPH was added to make the total volume of 1 ml. After the mixture was reacted at 37° C. for 30 minutes, 20% trichloroacetic acid was added to stop the reaction and the reaction mixture was centrifuged. […] The mixture was allowed to stand at 37° C. for 45 minutes to develop a color and the absorbance at 412 nm was measured. […]
# aniline hydroxylase = assay: Aniline hydroxylase activity of hepatic microsomes (Experimental Example 1(2-2)); conditions: 200 mg/kg
# Method: as §1
# The same procedure as in the above (2-1) was carried out to measure the activity of aniline hydroxylase. The activity of aniline hydroxylase was measured according to the method of Mieyal(John J. Mieyal, Acceleration of the autooxidation of human oxyhemoglobin by aniline and its relation to hemoglobin-catalyzed aniline hydroxylation, J. Biol. Chem. 251, 3442-3446(1976)).
# Thus, 1 mg of microsomes and 5 mM aniline were added to 0.6 ml of 0.1M potassium phosphate buffer(pH 6.8) to make the total volume of 0.9 ml. 1 mM NADPH was added to make the total volume of 1.0 ml and the resulting mixture was reacted at 37° C. After 10 minutes, 20% trichloroacetic acid was added to stop the reaction and the reaction mixture was centrifuged. To 1 ml of supernatant were added 0.1 ml of 5% phenol and 0.1 ml of 2.5N sodium carbonate, dissolved in 0.1N NaOH. The mixture was allowed to stand for 30 minutes to develop a color and the absorbance at 630 nm was measured at once. The enzyme activity was expressed in terms of mole concentration of 4-aminophenol, the product of reaction for 1 minute.
# [3] = test system: p-nitrophenol hydroxylase; assay: p-Nitrophenol hydroxylase activity of hepatic microsomes (Experimental Example 1(2-1)); conditions: 200 mg/kg
# Method: In order to examine the effect of the compound of the present invention on the activity of the enzymes involved in phase I reaction, the experiments were carried out as follows:
# as §1
# Thus, 1 mg of microsomes and 1mM p-nitrophenol were added to 0.6 ml of 0.1M potassium phosphate buffer(pH 6.8) to make the total volume of 0.9 ml. The resulting mixture was preliminarily reacted in a 37° C. incubator for 2 minutes and started to react while adding 1 mM NADPH(0.1 ml). After 3 minutes, 0.5 ml of 0.6N perchloric acid was added to develop a color and the absorbance at 546 nm was measured at once. The enzyme activity was expressed in terms of mole concentration of 4-nitrocatechol, the product of reaction for 1 minute.
smiles,measurement,setting,value
"C=CCSc1cnccn1 [Example 1-1, 2-(2-propenylthio)pyrazine]",expression of mEH compared to control or pyrazine groups,[1],significant increase in the expression of mEH
same,decrease in activity of N-nitrosodimethylamine demethylase compared to pyrazine groups,[2],49-73%
same,decrease in activity of aniline hydroxylase compared to pyrazine groups,aniline hydroxylase; 1 day,57%
same,decrease in activity of aniline hydroxylase compared to pyrazine groups,aniline hydroxylase; 2 days,80%
same,decrease in activity of aniline hydroxylase compared to pyrazine groups,aniline hydroxylase; 3 days,88%
same,decrease in activity of p-nitrophenol hydrolase compared to pyrazine groups,[3]; 1 day,64%
same,decrease in activity of p-nitrophenol hydrolase compared to pyrazine groups,[3]; 2 days,73%
same,decrease in activity of p-nitrophenol hydrolase compared to pyrazine groups,[3]; 3 days,82%
